{"source": "patent US6355799B1", "about": "“Substituted benzene compounds, process for their preparation, and herbicidal and defoliant compositions containing them” (ISK Americas Incorporated, priority 1997, dated 2002)", "assay_type_in_all_cases": "in vivo", "key": {"[1]": {"tested_on": "redroot pigweed (Amaranthus retroflexus, AMARE)", "test": "Pre-emerge test, greenhouse herbicide activity screening", "settings": "pre-emerge, 14 days after application, scale 0-100", "method_in_brief": "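Herbicidal damage is scored 0 (none) to 100 (complete plant death) two weeks after a simulated field spray. Rates span 15–1000 g ai/ha, delivered in acetone at 187 l/ha. For post-emergence treatments, plants have 2–3 leaves and the spray carries 0.25% v/v non-ionic surfactant.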"}, "[2]": {"tested_on": "barnyardgrass (Echinochloa crus-galli, ECHCG)", "test": "Pre-emerge test, greenhouse herbicide activity screening", "settings": "pre-emerge, 14 days after application, scale 0-100", "method_in_brief": "(§1)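 Visual ratings on a 0-100 scale (0 no damage, 100 all plants dead) were taken at 14 days after treatment. Rates of 15-1000 g ai/ha in acetone, 187 l/ha, were sprayed onto soil one day after planting (pre-emerge) or onto 2-3 leaf plants with 0.25% v/v surfactant (post-emerge).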"}, "[3]": {"tested_on": "green foxtail (Setaria viridis, SETVI)", "test": "Pre-emerge test, greenhouse herbicide activity screening", "settings": "pre-emerge, 14 days after application, scale 0-100", "method_in_brief": "as §1"}, "[4]": {"tested_on": "ivyleaf morningglory (Ipomoea hederacea, IPOHE)", "test": "Pre-emerge test, greenhouse herbicide activity screening", "settings": "pre-emerge, 14 days after application, scale 0-100", "method_in_brief": "as §1"}, "[5]": {"tested_on": "johnsongrass (Sorghum halepense, SORHA)", "test": "Pre-emerge test, greenhouse herbicide activity screening", "settings": "pre-emerge, 14 days after application, scale 0-100", "method_in_brief": "as §1"}, "[6]": {"tested_on": "lambsquarters (Chenopodium album, CHEAL)", "test": "Pre-emerge test, greenhouse herbicide activity screening", "settings": "pre-emerge, 14 days after application, scale 0-100", "method_in_brief": "as §1"}, "[7]": {"tested_on": "large crabgrass (Digitaria sanguinalis, DIGSA)", "test": "Pre-emerge test, greenhouse herbicide activity screening", "settings": "pre-emerge, 14 days after application, scale 0-100", "method_in_brief": "as §1"}, "[8]": {"tested_on": "sicklepod (Cassia obtusifolia, CASOB)", "test": "Pre-emerge test, greenhouse herbicide activity screening", "settings": "pre-emerge, 14 days after application, scale 0-100", "method_in_brief": "as §1"}, "[9]": {"tested_on": "velvetleaf (Abutilon theophrasti, ABUTH)", "test": "Pre-emerge test, greenhouse herbicide activity screening", "settings": "pre-emerge, 14 days after application, scale 0-100", "method_in_brief": "as §1"}, "[10]": {"tested_on": "field corn (Zea mays L., var. Dekalb 535, CORN)", "test": "Pre-emerge test, crop safety", "settings": "pre-emerge, 14 days after application, scale 0-100", "method_in_brief": "(§2)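 Compounds in acetone were track-sprayed at 15-1000 g ai/ha (187 l/ha) on sandy loam pots: pre-emerge one day after seeding, post-emerge at 2-3 leaf stage with 0.25% v/v non-ionic surfactant. Phytotoxicity was rated 14 days later on a 0 (no damage) to 100 (complete death) scale.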"}, "[11]": {"tested_on": "upland rice (Oryza sp., var. Tebonnet, RICE)", "test": "Pre-emerge test, crop safety", "settings": "pre-emerge, 14 days after application, scale 0-100", "method_in_brief": "as §2"}, "[12]": {"tested_on": "barnyardgrass (Echinochloa crus-galli, ECHCG)", "test": "Post-emerge test, greenhouse herbicide activity screening", "settings": "post-emerge, 14 days after application, rating scale 0-100", "method_in_brief": "(§3)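 Plants grown in 10 cm pots of sandy loam mix received acetone-dissolved compounds through a moving flat-fan nozzle. Doses ranged from 15 to 1000 g ai/ha. Pre-emerge pots were seeded one day earlier, post-emerge pots 8–21 days earlier. Fourteen days on, each pot was graded 0–100 for damage.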"}, "[13]": {"tested_on": "common ragweed (Ambrosia artemisizfolia L., AMBEL)", "test": "Post-emerge test, greenhouse herbicide activity screening", "settings": "post-emerge, 14 days after application, rating scale 0-100", "method_in_brief": "as §3"}, "[14]": {"tested_on": "green foxtail (Setaria viridis, SETVI)", "test": "Post-emerge test, greenhouse herbicide activity screening", "settings": "post-emerge, 14 days after application, rating scale 0-100", "method_in_brief": "as §3"}, "[15]": {"tested_on": "ivyleaf morningglory (Ipomoea hederacea, IPOHE)", "test": "Post-emerge test, greenhouse herbicide activity screening", "settings": "post-emerge, 14 days after application, rating scale 0-100", "method_in_brief": "as §3"}, "[16]": {"tested_on": "johnsongrass (Sorghum halepense, SORHA)", "test": "Post-emerge test, greenhouse herbicide activity screening", "settings": "post-emerge, 14 days after application, rating scale 0-100", "method_in_brief": "as §3"}, "[17]": {"tested_on": "lambsquarters (Chenopodium album, CHEAL)", "test": "Post-emerge test, greenhouse herbicide activity screening", "settings": "post-emerge, 14 days after application, rating scale 0-100", "method_in_brief": "as §3"}, "[18]": {"tested_on": "large crabgrass (Digitaria sanguinalis, DIGSA)", "test": "Post-emerge test, greenhouse herbicide activity screening", "settings": "post-emerge, 14 days after application, rating scale 0-100", "method_in_brief": "as §3"}, "[19]": {"tested_on": "redroot pigweed (Amaranthus retroflexus, AMARE)", "test": "Post-emerge test, greenhouse herbicide activity screening", "settings": "post-emerge, 14 days after application, rating scale 0-100", "method_in_brief": "as §3"}, "[20]": {"tested_on": "sicklepod (Cassia obtusifolia, CASOB)", "test": "Post-emerge test, greenhouse herbicide activity screening", "settings": "post-emerge, 14 days after application, rating scale 0-100", "method_in_brief": "as §3"}, "[21]": {"tested_on": "velvetleaf (Abutilon theophrasti, ABUTH)", "test": "Post-emerge test, greenhouse herbicide activity screening", "settings": "post-emerge, 14 days after application, rating scale 0-100", "method_in_brief": "as §3"}, "[22]": {"tested_on": "field corn (Zea mays L., var. Dekalb 535, CORN)", "test": "Post-emerge test, crop safety", "settings": "post-emerge, 14 days after application, rating scale 0-100", "method_in_brief": "as §1"}, "[23]": {"tested_on": "upland rice (Oryza sp., var. Tebonnet, RICE)", "test": "Post-emerge test, crop safety", "settings": "post-emerge, 14 days after application, rating scale 0-100", "method_in_brief": "as §1"}}}
{"molecule": "COc1c(Cl)cc(F)c(-n2c(=O)cc(C(F)(F)F)n(C)c2=O)c1NC(=O)Cc1ccccc1", "note": "[2-151]", "values": [{"measurement": "phytotoxicity rating AMARE", "setting": "[1]; 63 g ai/ha", "value": 0}, {"measurement": "phytotoxicity rating AMARE", "setting": "[1]; 250 g ai/ha", "value": 0}, {"measurement": "phytotoxicity rating ECHCG", "setting": "[2]; 63 g ai/ha", "value": 0}, {"measurement": "phytotoxicity rating ECHCG", "setting": "[2]; 250 g ai/ha", "value": 0}, {"measurement": "phytotoxicity rating SETVI", "setting": "[3]; 63 g ai/ha", "value": 0}, {"measurement": "phytotoxicity rating SETVI", "setting": "[3]; 250 g ai/ha", "value": 0}, {"measurement": "phytotoxicity rating IPOHE", "setting": "[4]; 63 g ai/ha", "value": 0}, {"measurement": "phytotoxicity rating IPOHE", "setting": "[4]; 250 g ai/ha", "value": 40}, {"measurement": "phytotoxicity rating SORHA", "setting": "[5]; 63 g ai/ha", "value": 0}, {"measurement": "phytotoxicity rating SORHA", "setting": "[5]; 250 g ai/ha", "value": 40}, {"measurement": "phytotoxicity rating CHEAL", "setting": "[6]; 63 g ai/ha", "value": 0}, {"measurement": "phytotoxicity rating CHEAL", "setting": "[6]; 250 g ai/ha", "value": 80}, {"measurement": "phytotoxicity rating DIGSA", "setting": "[7]; 63 g ai/ha", "value": 0}, {"measurement": "phytotoxicity rating DIGSA", "setting": "[7]; 250 g ai/ha", "value": 40}, {"measurement": "phytotoxicity rating CASOB", "setting": "[8]; 63 g ai/ha", "value": 0}, {"measurement": "phytotoxicity rating CASOB", "setting": "[8]; 250 g ai/ha", "value": 70}, {"measurement": "phytotoxicity rating ABUTH", "setting": "[9]; 63 g ai/ha", "value": 30}, {"measurement": "phytotoxicity rating ABUTH", "setting": "[9]; 250 g ai/ha", "value": 100}, {"measurement": "phytotoxicity rating CORN (crop damage)", "setting": "[10]; 63 g ai/ha", "value": 0}, {"measurement": "phytotoxicity rating CORN (crop damage)", "setting": "[10]; 250 g ai/ha", "value": 30}, {"measurement": "phytotoxicity rating RICE (crop damage)", "setting": "[11]; 63 g ai/ha", "value": 0}, {"measurement": "phytotoxicity rating RICE (crop damage)", "setting": "[11]; 250 g ai/ha", "value": 30}, {"measurement": "ECHCG phytotoxicity rating", "setting": "[12]; 63 g ai/ha", "value": 0}, {"measurement": "ECHCG phytotoxicity rating", "setting": "[12]; 250 g ai/ha", "value": 0}, {"measurement": "AMBEL phytotoxicity rating", "setting": "[13]; 63 g ai/ha", "value": 20}, {"measurement": "AMBEL phytotoxicity rating", "setting": "[13]; 250 g ai/ha", "value": 30}, {"measurement": "SETVI phytotoxicity rating", "setting": "[14]; 63 g ai/ha", "value": 0}, {"measurement": "SETVI phytotoxicity rating", "setting": "[14]; 250 g ai/ha", "value": 0}, {"measurement": "IPOHE phytotoxicity rating", "setting": "[15]; 63 g ai/ha", "value": 30}, {"measurement": "IPOHE phytotoxicity rating", "setting": "[15]; 250 g ai/ha", "value": 100}, {"measurement": "SORHA phytotoxicity rating", "setting": "[16]; 63 g ai/ha", "value": 0}, {"measurement": "SORHA phytotoxicity rating", "setting": "[16]; 250 g ai/ha", "value": 0}, {"measurement": "CHEAL phytotoxicity rating", "setting": "[17]; 63 g ai/ha", "value": 10}, {"measurement": "CHEAL phytotoxicity rating", "setting": "[17]; 250 g ai/ha", "value": 10}, {"measurement": "DIGSA phytotoxicity rating", "setting": "[18]; 63 g ai/ha", "value": 0}, {"measurement": "DIGSA phytotoxicity rating", "setting": "[18]; 250 g ai/ha", "value": 0}, {"measurement": "AMARE phytotoxicity rating", "setting": "[19]; 63 g ai/ha", "value": 10}, {"measurement": "AMARE phytotoxicity rating", "setting": "[19]; 250 g ai/ha", "value": 20}, {"measurement": "CASOB phytotoxicity rating", "setting": "[20]; 63 g ai/ha", "value": 10}, {"measurement": "CASOB phytotoxicity rating", "setting": "[20]; 250 g ai/ha", "value": 50}, {"measurement": "ABUTH phytotoxicity rating", "setting": "[21]; 63 g ai/ha", "value": 0}, {"measurement": "ABUTH phytotoxicity rating", "setting": "[21]; 250 g ai/ha", "value": 50}, {"measurement": "CORN phytotoxicity rating (crop damage)", "setting": "[22]; 63 g ai/ha", "value": 0}, {"measurement": "CORN phytotoxicity rating (crop damage)", "setting": "[22]; 250 g ai/ha", "value": 0}, {"measurement": "RICE phytotoxicity rating (crop damage)", "setting": "[23]; 63 g ai/ha", "value": 0}, {"measurement": "RICE phytotoxicity rating (crop damage)", "setting": "[23]; 250 g ai/ha", "value": 10}]}
